Results on four molecules are retold here after patent US20130303566A1, “METHOD FOR TREATING MACULAR DEGENERATION” (DAVID W. HILL, priority 2012, published 2013).

The subject of one data set is damaged macular area. Also noted: species or system human. The note with it: in vivo.
A further data set has as its system patients with dry AMD. As to conditions: 60 mcg PGE1 as alprostadil, intravenous infusion daily for 15 days, 15 patients with dry AMD; cited from earlier work.
Another data set relates to patient with AMD. As to conditions: human, in vivo.

Each structure is given as a SMILES string.

Procedure for patient with AMD: To test the hypothesis that vasodilators can successfully treat AMD, TriMix injectable blend was obtained containing, in 10 ml of water, 0.4 ml ethanol, 0.3 g papaverine hydrochloride, 0.02 g phentolamine mesylate and 200 mcg prostaglandin. E1 (PGE1 or “alprostadil”), with 0.01 ml benzyl alcohol. […] The following example explores the role of administering Trimix to a patient with AMD.
Initial doses were 1 mcg alprostadil, but were upped to 2 mcg of alprostadil for a period of time and then lowered to the original dose. Thus, on a daily basis, 0.85-0.10 mL of the above TriMix blend can be injected into the patient, delivering 1-2 mcg alprostadil, 0.1-0.2 mg phentolamine and 1.5-3.0 mg of papaverine.

On to `COc1ccc2cc([C@H](C)C(=O)O)ccc2c1` [naproxen sodium], for which the effect on vision entry in the data set on damaged macular area is “cause the mask of the damaged macular area to appear colored, such as bright red, can cause misty vision”.

For `CCCCC[C@H](O)/C=C/[C@H]1[C@H](O)CC(=O)[C@@H]1CCCCCCC(=O)O` [PGE1, (11α,13E,15S)-11,15-Dihydroxy-9-osoprost-13-en-1-oic acid], the trial outcome in the data set on patients with dry AMD was “lack of statistically significant results”. Besides, the “tolerability of high doses” value with patient with AMD is given as “without any problems”. In the case of `CC(=O)Nc1ccc(O)cc1` [acetaminophen], in the data set with damaged macular area, the effect on vision result is on record as “cause the mask of the damaged macular area to appear colored, such as bright red, can cause misty vision”. Same read-out and setting: next, `CC(=O)Oc1ccccc1C(=O)O` [aspirin]: “cause the mask of the damaged macular area to appear colored, such as bright red, can cause misty vision”.
